Experimental data as given in PubChem BioAssay AID248 (DTP/NCI, 2004).
Values joined by “and” are separate entries in the source; they are usually repeats but may differ in a detail not shown here. Equal values may be shown once. Inconclusive results and toxic doses are left out.

Test system: L1210 leukemia ip in BDF1 mice, survival T/C
Assay: NCI In Vivo Anticancer Drug Screen. Data for tumor model L1210 Leukemia (intraperitoneal) in B6D2F1 (BDF1) mice
Conditions: endpoint: mean survival time, higher = longer survival
Method in brief: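 Survival endpoint. Drug-treated group vs vehicle group, expressed as T divided by C. Tumor passaged by transplantation.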

[1] = dose: 50.0 mg/kg/injection, schedule: Q04DX002 (ip), vehicle: Klucel (hydroxypropylcellulose) (HPC)
[2] = dose: 100.0 mg/kg/injection, schedule: Q04DX002 (ip), vehicle: Klucel (hydroxypropylcellulose) (HPC)
[3] = dose: 200.0 mg/kg/injection, schedule: Q04DX002 (ip), vehicle: Klucel (hydroxypropylcellulose) (HPC)
[4] = dose: 400.0 mg/kg/injection, schedule: Q04DX002 (ip), vehicle: Klucel (hydroxypropylcellulose) (HPC)
[5] = dose: 50.0 mg/kg/injection, schedule: Q01DX009 (ip), vehicle: saline with Tween-80
[6] = dose: 100.0 mg/kg/injection, schedule: Q01DX009 (ip), vehicle: saline with Tween-80
[7] = dose: 100.0 mg/kg/injection, schedule: Q04DX003 (ip), vehicle: saline with Tween-80
[8] = dose: 25.0 mg/kg/injection, schedule: Q04DX002 (ip), vehicle: Klucel (hydroxypropylcellulose) (HPC)
[9] = dose: 100.0 mg/kg/injection, schedule: Q01DX001 (ip), vehicle: saline
[10] = dose: 200.0 mg/kg/injection, schedule: Q01DX001 (ip), vehicle: saline
[11] = dose: 400.0 mg/kg/injection, schedule: Q01DX001 (ip), vehicle: saline
[12] = dose: 50.0 mg/kg/injection, schedule: Q01DX009 (ip), vehicle: saline
[13] = dose: 100.0 mg/kg/injection, schedule: Q01DX009 (ip), vehicle: saline
[14] = dose: 200.0 mg/kg/injection, schedule: Q01DX009 (ip), vehicle: saline
[15] = dose: 400.0 mg/kg/injection, schedule: Q01DX009 (ip), vehicle: saline
[16] = dose: 100.0 mg/kg/injection, schedule: Q01DX001 (ip), vehicle: carboxymethylcellulose (CMC)
[17] = dose: 200.0 mg/kg/injection, schedule: Q01DX001 (ip), vehicle: carboxymethylcellulose (CMC)

O=C(Nc1cccc(NC(=O)Nc2cc(C(O)=Nc3ccc(C4=NCCN4)cc3)ccc2C(O)=Nc2ccc(C3=NCCN3)cc2)c1)Nc1cc(C(O)=Nc2ccc(C3=NCCN3)cc2)ccc1C(O)=Nc1ccc(C2=NCCN2)cc1
T/C (dose: 15.0 mg/kg/injection, schedule: Q01DX Z (ip), vehicle: saline): 92 % of control | T/C (dose: 30.0 mg/kg/injection, schedule: Q01DX Z (ip), vehicle: saline): 97 % of control | T/C (dose: 60.0 mg/kg/injection, schedule: Q01DX Z (ip), vehicle: saline): 102 % of control | T/C (dose: 120.0 mg/kg/injection, schedule: Q01DX Z (ip), vehicle: saline): 105 % of control

CSc1ncnc2c1ncn2C1OC(CCC(N)=O)C(O)C1O (centres undefined)
T/C [1]: 98 % of control | T/C [2]: 101 % of control and 103 % of control | T/C [3]: 95 % of control | T/C [4]: 95 % of control

CC1(C)CC2(C)OC3(C)CC(C)(C)OC3(C)OC2(C)O1 (centres undefined)
T/C (dose: 100.0 mg/kg/injection, schedule: Q01DX001 (ip), vehicle: Klucel (hydroxypropylcellulose) (HPC)): 107 % of control | T/C (dose: 200.0 mg/kg/injection, schedule: Q01DX001 (ip), vehicle: Klucel (hydroxypropylcellulose) (HPC)): 102 % of control | T/C (dose: 400.0 mg/kg/injection, schedule: Q01DX001 (ip), vehicle: Klucel (hydroxypropylcellulose) (HPC)): 102 % of control

CCOCCC(=O)CC(=O)OC
T/C [5]: 96 % of control | T/C [6]: 100 % of control | T/C (dose: 200.0 mg/kg/injection, schedule: Q01DX009 (ip), vehicle: saline with Tween-80): 96 % of control

O=[N+]([O-])c1cccc(S(=O)(=O)OCCOc2ccccc2)c1
T/C [7]: 103 % of control | T/C (dose: 200.0 mg/kg/injection, schedule: Q04DX003 (ip), vehicle: saline with Tween-80): 101 % of control | T/C (dose: 400.0 mg/kg/injection, schedule: Q04DX003 (ip), vehicle: saline with Tween-80): 101 % of control

COC1OC2COC(c3ccccc3)OC2C2OC(=S)OC12 (centres undefined)
T/C [8]: 104 % of control | T/C [1]: 97 % of control | T/C [9]: 102 % of control | T/C [2]: 104 % of control | T/C (dose: 100.0 mg/kg/injection, schedule: Q04DX002 (ip), vehicle: saline): 93 % of control | T/C [10]: 98 % of control | T/C (dose: 200.0 mg/kg/injection, schedule: Q04DX002 (ip), vehicle: saline): 100 % of control | T/C [11]: 98 % of control | T/C (dose: 400.0 mg/kg/injection, schedule: Q04DX002 (ip), vehicle: saline): 107 % of control

CC1CCC(C(C)C)C(OC(=O)Nc2ccc(S(=O)(=O)N(C)C)cc2)C1 (centres undefined)
T/C [9]: 94 % of control | T/C [10]: 89 % of control | T/C [11]: 91 % of control

Cc1cc(NC(=O)NCc2ccc(N3C(N)=NC(N)=NC3(C)C)cc2)ccc1S(=O)(=O)F
T/C [12]: 102 % of control | T/C [13]: 119 % of control | T/C [14]: 107 % of control | T/C [15]: 114 % of control

Clc1cc2n[nH]nc2c(SCc2ccccc2)n1
T/C (dose: 50.0 mg/kg/injection, schedule: Q01DX005 (ip), vehicle: saline with Tween-80): 101 % of control | T/C (dose: 100.0 mg/kg/injection, schedule: Q01DX005 (ip), vehicle: saline with Tween-80): 90 % of control | T/C (dose: 200.0 mg/kg/injection, schedule: Q01DX005 (ip), vehicle: saline with Tween-80): 97 % of control

CCOC(=O)C1C(=O)C(N=Nc2ccc(-c3ccc(N=NC4C(=O)C(C(=O)OCC)C(c5ccc(O)c(OC)c5)C(C(=O)OCC)C4=O)cc3)cc2)C(=O)CC1c1ccc(O)c(OC)c1 (centres undefined)
T/C (dose: 100.0 mg/kg/injection, schedule: Q01DX001 (ip), vehicle: other): 96 % of control | T/C (dose: 200.0 mg/kg/injection, schedule: Q01DX001 (ip), vehicle: other): 103 % of control

COc1ccc([N+](=O)[O-])c(C=O)c1
T/C [13]: 101 % of control | T/C (dose: 100.0 mg/kg/injection, schedule: Q04DX003 (ip), vehicle: saline): 97 % of control | T/C [14]: 98 % of control | T/C (dose: 200.0 mg/kg/injection, schedule: Q04DX003 (ip), vehicle: saline): 100 % of control | T/C [15]: 101 % of control | T/C (dose: 400.0 mg/kg/injection, schedule: Q04DX003 (ip), vehicle: saline): 103 % of control

Cc1ccc2c3csc4ccccc4c-3nc2c1
T/C (dose: 6.25 mg/kg/injection, schedule: Q01DX009 (ip), vehicle: saline): 101 % of control | T/C (dose: 12.5 mg/kg/injection, schedule: Q01DX009 (ip), vehicle: saline): 95 % of control | T/C (dose: 12.5 mg/kg/injection, schedule: Q04DX003 (ip), vehicle: saline): 93 % of control | T/C (dose: 25.0 mg/kg/injection, schedule: Q04DX003 (ip), vehicle: saline): 92 % of control

COc1nc(=O)n(C2OC(CO)C(O)C2O)cc1F (centres undefined)
T/C (dose: 50.0 mg/kg/injection, schedule: Q01DX001 (ip), vehicle: saline): 95 % of control | T/C [9]: 90 % of control | T/C [10]: 93 % of control | T/C [11]: 90 % of control

S=C(Nc1ccccc1)Nc1ccc(Cl)c(Cl)c1
T/C (dose: 12.5 mg/kg/injection, schedule: Q01DX009 (ip), vehicle: saline with Tween-80): 95 % of control | T/C (dose: 25.0 mg/kg/injection, schedule: Q01DX009 (ip), vehicle: saline with Tween-80): 92 % of control and 90 % of control | T/C [5]: 105 % of control | T/C [6]: 87 % of control and 91 % of control

O=C(O)c1cccc(Nc2ccccc2C(=O)O)c1
T/C [16]: 90 % of control | T/C [17]: 92 % of control

C=CCNC(=S)NCc1cccc2ccccc12
T/C (dose: 100.0 mg/kg/injection, schedule: Q01DX009 (ip), vehicle: Klucel (hydroxypropylcellulose) (HPC)): 98 % of control | T/C (dose: 200.0 mg/kg/injection, schedule: Q01DX009 (ip), vehicle: Klucel (hydroxypropylcellulose) (HPC)): 111 % of control | T/C (dose: 400.0 mg/kg/injection, schedule: Q01DX009 (ip), vehicle: Klucel (hydroxypropylcellulose) (HPC)): 88 % of control

CCN(CC)Cc1ccccc1COC(=O)c1cccc(Cl)c1
T/C [2]: 103 % of control | T/C [3]: 103 % of control | T/C [4]: 92 % of control

OC(c1ccccc1)(c1ccccc1)c1ccncc1
T/C [5]: 96 % of control

Oc1ccccc1/C=N/Sc1ccccc1.Oc1ccccc1/C=N/Sc1ccccc1.[Cl][Pd][Cl]
T/C (dose: 12.5 mg/kg/injection, schedule: Q04DX002 (ip), vehicle: Klucel (hydroxypropylcellulose) (HPC)): 90 % of control | T/C [8]: 101 % of control | T/C [1]: 111 % of control

NS(=O)(=O)c1ccc(N=Nc2ncc(CC(NC3=CC(=O)C(=O)c4ccccc43)C(=O)O)[nH]2)cc1 (centres undefined)
T/C [12]: 96 % of control | T/C [13]: 96 % of control | T/C [14]: 105 % of control

CC(C)COC(=O)c1ccc(NC(=O)Nc2ccc(F)cc2)cc1
T/C [16]: 99 % of control | T/C (dose: 100.0 mg/kg/injection, schedule: Q01DX009 (ip), vehicle: carboxymethylcellulose (CMC)): 92 % of control and 97 % of control | T/C (dose: 100.0 mg/kg/injection, schedule: Q04DX002 (ip), vehicle: carboxymethylcellulose (CMC)): 93 % of control and 103 % of control | T/C (dose: 100.0 mg/kg/injection, schedule: Q04DX003 (ip), vehicle: carboxymethylcellulose (CMC)): 96 % of control | T/C [17]: 87 % of control | T/C (dose: 200.0 mg/kg/injection, schedule: Q01DX009 (ip), vehicle: carboxymethylcellulose (CMC)): 100 % of control and 90 % of control | T/C (dose: 200.0 mg/kg/injection, schedule: Q04DX002 (ip), vehicle: carboxymethylcellulose (CMC)): 92 % of control and 91 % of control | T/C (dose: 200.0 mg/kg/injection, schedule: Q04DX003 (ip), vehicle: carboxymethylcellulose (CMC)): 96 % of control | T/C (dose: 400.0 mg/kg/injection, schedule: Q01DX001 (ip), vehicle: carboxymethylcellulose (CMC)): 96 % of control | T/C (dose: 400.0 mg/kg/injection, schedule: Q01DX009 (ip), vehicle: carboxymethylcellulose (CMC)): 100 % of control | T/C (dose: 400.0 mg/kg/injection, schedule: Q04DX002 (ip), vehicle: carboxymethylcellulose (CMC)): 100 % of control and 102 % of control | T/C (dose: 400.0 mg/kg/injection, schedule: Q04DX003 (ip), vehicle: carboxymethylcellulose (CMC)): 95 % of control

CC(=O)Oc1ccc(Nc2c3ccccc3nc3ccccc23)cc1
T/C (dose: 25.0 mg/kg/injection, schedule: Q04DX002 (ip), vehicle: saline with Tween-80): 106 % of control | T/C (dose: 44.0 mg/kg/injection, schedule: Q04DX003 (ip), vehicle: saline with Tween-80): 116 % of control | T/C (dose: 66.0 mg/kg/injection, schedule: Q04DX003 (ip), vehicle: saline with Tween-80): 119 % of control | T/C (dose: 100.0 mg/kg/injection, schedule: Q04DX002 (ip), vehicle: saline with Tween-80): 181 % of control | T/C [7]: 123 % of control | T/C (dose: 150.0 mg/kg/injection, schedule: Q04DX003 (ip), vehicle: saline with Tween-80): 116 % of control
